Data: patent US20130196927A1, “Smac Mimetic Therapy” (priority 2012, published 2013)

Target: T1, GFP-tagged cIAP-2 (Homo sapiens, UniProt Q13489)
T1 construct: expressed in transfected cells
Assay: GFP-tagged cIAP-2 degradation assay (loss of GFP signal)
Assay type: cell-based
Settings: GFP-cIAP expressing melanoma cell line A375, treatment for two hours; read-out: IC50 for GFP-tagged cIAP-2 degradation
Source text: To evaluate the Smac-mimetic activity in cancer cell lines, we have developed intra-cellular green fluorescence protein (GFP)-tagged cIAP-1 and GFP-tagged cIAP-2 assays. […].

T1 sequence (Q13489 whole entry): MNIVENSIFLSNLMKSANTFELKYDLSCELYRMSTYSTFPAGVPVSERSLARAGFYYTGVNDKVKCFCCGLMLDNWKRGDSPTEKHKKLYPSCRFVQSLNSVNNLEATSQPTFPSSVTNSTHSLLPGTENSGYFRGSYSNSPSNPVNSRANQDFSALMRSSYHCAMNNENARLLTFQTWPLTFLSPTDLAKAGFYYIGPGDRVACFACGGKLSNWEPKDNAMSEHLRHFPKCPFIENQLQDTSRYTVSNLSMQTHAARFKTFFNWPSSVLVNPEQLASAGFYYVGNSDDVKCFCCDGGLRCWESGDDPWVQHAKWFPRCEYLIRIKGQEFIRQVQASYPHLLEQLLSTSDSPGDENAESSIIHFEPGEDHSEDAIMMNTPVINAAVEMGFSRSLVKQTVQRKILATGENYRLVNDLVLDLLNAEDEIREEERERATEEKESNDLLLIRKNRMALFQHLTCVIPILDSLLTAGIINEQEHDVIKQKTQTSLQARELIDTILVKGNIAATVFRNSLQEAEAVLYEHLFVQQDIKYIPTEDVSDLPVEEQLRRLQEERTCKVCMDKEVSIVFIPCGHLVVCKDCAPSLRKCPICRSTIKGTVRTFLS

CC[C@H](NC(=O)[C@H](C)NC)C(=O)N1C[C@@H](O)C[C@H]1Cc1c(-c2[nH]c3cc(F)ccc3c2C[C@@H]2C[C@H](O)CN2C(=O)[C@H](CC)NC(=O)[C@H](C)NC)[nH]c2cc(F)ccc12 [Compound 15, birinapant]
DC50: 150 nM
